Columns and labels:
[1] = system: ecDNA hubs in COLO320-DM; experiment: ecDNA clustering by interphase DNA FISH, autocorrelation g(r); format: cell-based, human; conditions: 6 hours
From the text: The Oligopaint FISH probe libraries were constructed as described previously 51 Each oligo consists of a 40 nucleotide (nt) homology to the hg19 genome assemble designed from the algorithm developed from the laboratory of Dr. Ting Wu (https://oligopaints.hms.harvard.edu/). Each library subpool consists of a unique sets of primer pairs for orthogonal PCR amplification and a 20 nt T7 promoter sequence for in vitro transcription and a 20 nt region for reverse transcription. Individual Oligopaint probes were generated by PCR amplification, in vitro transcription, and reverse transcription, in which ssDNA oligos conjugated with ATTO488 and ATTO647 fluorophores were introduced during the reverse transcription step. The Oligopaint covered genomic regions (hg19) used in this study are as follows: chr8: 116967673-118566852 (hg19_COLO_nonecDNA_1.5Mbp), chr8: 127435083-129017969 (hg19_COLO_ecDNA_1.5Mbp), chr8: 128729248-128831223 (hg19_PC3_ecDNA1_100 kb). A ssDNA oligo pool was ordered and synthesized from Twist Bioscience (San Francisco, CA). 15 mm #1.5 round glass coverslips (Electron Microscopy Sciences) were pre-rinsed with anhydrous ethanol for 5 min, air dried, and coated with L-poly lysine solution (100 μg/mL) for at least 2 hours. Fully dissociated ColoDM320 or PC3 cells were seeded onto the coverslips and recovered for at least 6 hours before experiments. Cells were fixed with 4% (v/v) methanol free paraformaldehyde diluted in 1×PBS at room temperature for 10 min. Then cells were washed 2× with 1×PBS and permeabilized in 0.5% Triton-X100 in 1×PBS for 30 min. After 2× wash in 1×PBS, cells were treated with 0.1M HCl for 5 min, followed by 3× washes with 2×SSC and 30 min incubation in 2×SSC+0.1% Tween20 (2×SSCT)+50% (v/v) formamide (EMD Millipore, cat #S4117). […]
To analyze the clustering of ecDNAs, we applied the autocorrelation function as described previously58 in Matlab (2019). g(r) estimates the probability of detecting another ecDNA signal at increasing distances from the viewpoint of an index ecDNA signal and is equal to 1 for a uniform, random distribution. Specifically, the pair auto-correlation function g(r^→) was calculated by the fast Fourier transform (FFT) method described by the equations below.
N(r^→) is the auto-correlation of a mask matrix that has the value of 1 inside the nucleus used for normalization. […] Autocorrelation functions were calculated first by converting the Cartesian coordinates to polar coordinates by Matlab cart2pol( ) function, binning by radius and by averaging within the assigned bins. […]

[2] = system: MYC mRNA in COLO320-DM cells; experiment: MYC RNA measured by RT-qPCR in COLO320-DM; format: cell-based, human; conditions: 500 nM, 6 hours
Method: Cells were then treated for 6 hours with 500 nM JQ1 in DMSO unless otherwise indicated (Sigma-Aldrich SML1524) or an equivalent volume of DMSO.
RNA was extracted using RNeasy Plus mini Kit (QIAGEN 74136). Purified RNA was quantified by Nanodrop (Thermo Fisher). For RT-qPCR, 50 ng of RNA, 1× Brilliant II qRT-PCR mastermix with 1 μL RT/RNase block (Agilent 600825), and 200 nM forward and reverse primer were used. Each Ct value was measured using Lightcycler 480 (Roche) and each mean dCt was averaged from duplicate qRT-PCR reaction and performed in biological triplicate. Relative MYC RNA level (RT-qPCR primers MYC_exon3_fw and MYC_exon3_rv) was calculated by ddCt method compared to 18S and GAPDH controls (RT-qPCR primers GAPDH_fw, GAPDH_rv, 18S_fw, 18S_rv). P values were calculated using a Student's t-test by comparing the relative fold change of biological triplicates.
Approximately 0.6×10^6 COLO320-DM or COLO-320-HSR cells were plated in 6 well plates and cultured under standard conditions for 24 hours. Cells were then treated for 6 hours with one of the following: 500 nM JQ1 (Sigma-Aldrich SML1524), 500 nM MS645 (Sigma Aldrich SML2549), 1 μM THZ-1 (Selleck chemicals S7549), 20 μM SGC-SCP30 (Selleck chemicals S7256), 10 μM OICR-9429 (Selleck chemicals S7833), 50 μM MI-3 (Selleck chemicals S7619), 2 μM trichostatin A (Selleck chemicals S1045), or DMSO. […]

## Cc1sc2c(c1C)C(c1ccc(Cl)cc1)=N[C@@H](CC(=O)NCCCCCCCCCCNC(=O)C[C@@H]1N=C(c3ccc(Cl)cc3)c3c(sc(C)c3C)-n3c(C)nnc31)c1nnc(C)n1-2 [MS645]
[1]; 500 nM
  ecDNA hub clustering (interphase DNA FISH, autocorrelation g(r)): reduced ecDNA transcription and clustering similar to JQ1
[2]
  MYC mRNA level: reduced ecDNA transcription and clustering similar to JQ1

## alpha-amanitin
[1]; 100 μg/mL alpha-amanitin
  ecDNA hub clustering (interphase DNA FISH, autocorrelation g(r)): did not affect ecDNA hubs

## OCCCCCCO [1,6-hexanediol]
[1]; 1% 1,6-hexanediol
  ecDNA hub clustering (interphase DNA FISH, autocorrelation g(r)): did not affect ecDNA hubs
